These results are taken from ChEMBL document CHEMBL3745605, “Aspernigrins with anti-HIV-1 activities from the marine-derived fungus Aspergillus niger SCSIO Jcsw6F30” (Bioorg Med Chem Lett, 2016).

For data set [1], the system named is Human immunodeficiency virus 1. The experiment in a line: Antiviral activity against HIV-1 SF162 infected in TZM-bl cells after 2 days by luciferase reporter gene assay. In kind it is functional, cell-based. The note with it: Human immunodeficiency virus 1, SF162 ISOLATE, 48 h.
Data set [2] has as its system Human immunodeficiency virus 1. Description: Antiviral activity against HIV-1 SF162 infected in TZM-bl cells at 50 uM after 2 days by luciferase reporter gene assay. The class given is functional, cell-based. The note with it: SF162 ISOLATE.
Data set [3] is described as follows: Selectivity index, ratio of CC50 for human TZM-bl cells to IC50 for HIV-1 SF162 infected in TZM-bl cells. The class given is functional.
Data set [4] is described as follows: Cytotoxicity against human TZM-bl cells after 2 days by colorimetric XTT assay. In kind it is cell-based.

Each structure is given as a SMILES string. Calls of active or inactive are those of the source. No cut-off for these calls is given here. Bridge positions count the residues as written; N and C are the ends. Square brackets hold non-standard residues; d marks the D form. Peptide text beside a SMILES is read from it.

In general, IC50 refers to the midpoint of a concentration-inhibition curve. A lower IC50 goes with greater potency. For `Nc1nc(NC2CC2)c2ncn([C@H]3C=C[C@@H](CO)C3)c2n1` [ABACAVIR], the IC50 in data set [1] was 0.8 µM.

For the molecule `COC(=O)[C@@H](C)CC(=O)NC(=O)c1cn([C@@H](Cc2ccccc2)c2cc(OC)cc(=O)o2)c(Cc2ccccc2)cc1=O`, the result in data set [2] was inactive.

One may read the CC50 as the concentration that lowers cell viability or growth by half. Consider `COc1cc(O)c2c(O)c3c(=O)cc(C)oc3cc2c1` [RUBROFUSARIN], for which the IC50 in data set [1] was found to be 56.2 µM. In addition, the “Ratio CC50/IC50” value in data set [3] came to 18.1. The molecule further gave a CC50 at 48 h in data set [4] of 1020 µM.

With `COc1cc([C@H](Cc2ccccc2)n2cc(C(=O)NC(=O)C[C@H](C)C(=O)O)c(=O)cc2Cc2ccccc2)oc(=O)c1`, the IC50 in data set [1] was found to be 4.7 µM. Besides, the “Ratio CC50/IC50” value in data set [3] is 7.5. This molecule yielded a CC50 at 48 h in data set [4] of 35 µM.

In the case of `COc1cc(OC)c2c(O)c3c(=O)cc(C)oc3cc2c1`, the outcome in data set [2] was inactive.

On to `COc1ccc(S(=O)(=O)O)cc1/N=N/c1c(S(=O)(=O)O)cc2cc(Nc3nc(Nc4ccccc4)nc(Nc4cc(C)c(/N=N/c5cc(S(=O)(=O)O)cc6cc(S(=O)(=O)O)cc(O)c56)cc4OC)n3)ccc2c1O`, for which it took 1.8 µM to reach half-maximal inhibition in data set [1] (IC50).

The molecule `NC(=O)c1c[nH]c(Cc2ccccc2)cc1=O` registered an IC50 in data set [1] of 83.2 µM. Further, the “Ratio CC50/IC50” value in data set [3] is given as 7. In data set [4], this molecule came in with a CC50 at 48 h of 583 µM.

For the molecule `COc1cc(O)cc2cc3c(c(O)c12)C(=O)CC(C)(O)O3` (stereo not drawn), the result in data set [2] was inactive.

`COc1cc([C@H](Cc2ccccc2)n2cc(C(N)=O)c(=O)cc2Cc2ccccc2)oc(=O)c1`: the result in data set [2] was inactive.

Turning to `CC(C)C[C@@H]1NC(=O)[C@@H](CC(C)C)NC(=O)[C@H](C(C)C)NC(=O)[C@H]2CSSC[C@@H](NC1=O)C(=O)N2` (cyclo(L[dC][dC]V[dL]); disulfide 2-3), the IC50 in data set [1] worked out at 1.4 µM. Further, the “Ratio CC50/IC50” value in data set [3] turned out to be 11.4. For the same molecule, in data set [4], the CC50 at 48 h was 16.4 µM.
